According to patent US9440972B2, “Pyrido[2,3-d]pyrimidine-2,4(1 H,3H)-dione derivatives” (Hydra Biosciences, Inc., priority 2014, dated 2016):

How the values were obtained:
TRPC5 channel [1] = molecular target: T1, TRPC5 channel (Homo sapiens, UniProt Q9UL62); assay: High throughput screening assay: Fluo4 cell-based fluorescence assay of intracellular Ca2+ rise; conditions: HEK293/TREx cells inducibly expressing TRPC5, 0.027-20 μM in triplicate, NF = no IC50 curve could be fit
T1 construct: expressed in transfected cells; host or cells: HEK293/TREx (Invitrogen), tetracycline-induced
T1 sequence (Q9UL62 1-973): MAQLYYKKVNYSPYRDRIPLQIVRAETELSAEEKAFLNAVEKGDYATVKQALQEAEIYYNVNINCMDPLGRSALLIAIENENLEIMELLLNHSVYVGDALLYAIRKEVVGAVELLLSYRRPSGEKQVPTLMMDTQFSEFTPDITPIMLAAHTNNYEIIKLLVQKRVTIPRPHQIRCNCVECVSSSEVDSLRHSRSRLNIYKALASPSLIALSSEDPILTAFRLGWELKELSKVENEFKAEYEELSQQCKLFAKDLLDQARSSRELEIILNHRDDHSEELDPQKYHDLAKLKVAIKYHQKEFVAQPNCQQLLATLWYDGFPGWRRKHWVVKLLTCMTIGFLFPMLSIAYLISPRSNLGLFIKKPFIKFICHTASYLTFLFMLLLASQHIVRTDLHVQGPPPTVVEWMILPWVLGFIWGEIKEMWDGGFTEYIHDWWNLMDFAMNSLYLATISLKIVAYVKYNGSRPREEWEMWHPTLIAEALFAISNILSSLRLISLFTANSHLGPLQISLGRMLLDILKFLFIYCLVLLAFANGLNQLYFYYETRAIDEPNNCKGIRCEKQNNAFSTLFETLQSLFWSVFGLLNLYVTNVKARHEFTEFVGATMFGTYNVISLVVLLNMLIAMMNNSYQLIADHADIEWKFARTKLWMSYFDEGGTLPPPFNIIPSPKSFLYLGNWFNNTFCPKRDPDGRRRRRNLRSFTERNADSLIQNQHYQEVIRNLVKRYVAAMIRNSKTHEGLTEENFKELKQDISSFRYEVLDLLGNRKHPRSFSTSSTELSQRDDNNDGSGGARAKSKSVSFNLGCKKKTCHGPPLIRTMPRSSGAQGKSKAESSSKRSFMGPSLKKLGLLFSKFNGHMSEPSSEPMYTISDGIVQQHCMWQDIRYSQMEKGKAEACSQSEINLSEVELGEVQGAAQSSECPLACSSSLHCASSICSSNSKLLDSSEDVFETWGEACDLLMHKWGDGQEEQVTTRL
From the text: The assay depended on detection of the rise in intracellular Ca2+ concentration ([Ca2+]i) following channel activation in cells inducibly expressing the TRPC5 channel. Ca2+ rise was quantified with the use of fluorescent Ca2+ indicators that were loaded into cells and thereafter indicated the [Ca2+]i Ca2+ influx followed activation of the TRPC5 channel. Compounds inhibiting the [Ca2+]i rise were considered hits for further investigation.
The commercially available HEK293/TREx line (Invitrogen) was stably transfected with a TRPC5 construct and screened by conventional calcium imaging to find clones with TRPC5 expression following stimulation with 1 μg/ml tetracycline. These cells were maintained in the growth medium recommended by the manufacturer supplemented with 100 μg/ml hygromycin to promote retention of the TRPC5 construct. After growing to near confluency, cells were plated at a density of ˜35,000 cells/well in 384 well CellBind plates (Corning) in the presence of 1 μg/ml tetracycline, and allowed to grow for 20-30 hrs. A nearly confluent monolayer resulted. Cells were then loaded with Ca2+ dye: Fura-2/AM or Fluo4/AM was added to the wells to a final concentration of 4 μM or 0.5 μM, respectively, and incubated for 80 min or 60 min, respectively, at room temperature. Supernatant was then removed from the cells by inverting plates with a sharp flick, and 25 μl Hank's Balanced Salt Solution (HBSS; 0.185 g/l D-glucose, 0.9767 g/l MgS04 (anhydrous), 0.4 g/l KCl, 0.06 g/l KH2PO4 (anhydrous), 0.35 g/l NaHCO3, 8.0 g/l NaCl, and 0.04788 g/l Na2HPO4 (anhydrous); pH 7.4) was then added to each well. Following ˜0.5 hour for recovery from loading, cells were assayed using the Hamamatsu FDSS 6000 system, which permitted illumination alternately at 340 nm and 380 nm for Fura-2 experiments, or at 485 nm for Fluo4 experiments. Frames were acquired at a rate of 0.2 Hz. During the assay, the plates were continuously vortexed, with pipette mixing of wells following addition of each reagent. For the screening assay, 26 μl of a diluted compound stock (at 50 μM) was added to each well for 2 minutes following the collection of a short (4 frame) baseline. 13 μl 62 mM high-Ca2+Ringer solution (4.17 ml of normal ringer (with 2 mM Ca2+) plus 5.83 ml of isotonic calcium ringer (105 mM Ca2+; in this ringer all sodium has been replaced with calcium)) was then added to each well, achieving a final concentration of 14 mM Ca2+ and 10 μM test compound. Data was collected for ˜3 minutes following addition of high Ca2+Ringer, where the fluorescent intensity (for Fluo4) and the F340/F380 ratio (for Fura-2) were proportional to the [Ca2+]i Negative controls consisted of HEK293/TREx TRPC5 cells exposed to high Ca2+ solution, but no compound. Positive control conditions consisted of addition of 2-APB, a promiscuous blocker of TRPC5 and other channels, to columns 23 and 24 of the plates, to a final concentration of 200 μM. These controls defined a screening window, and “hits” were defined as those compounds inhibiting the fluorescence response by at least 40%. IC50 values were determined for compounds defined as “hits.” The Fluo4 cell-based fluorescence assay was used to determine the intracellular Ca2+ concentration in the presence of varying drug concentration. Final concentrations of compounds tested were 20 μM, 6.667 μM, 2.222 μM, 0.741 μM, 0.247 μM, 0.082 μM, and 0.027 μM. Compounds were tested in triplicate at all concentrations. Standard software was used to fit IC50 curves. A value of NF was assigned when no IC50 curves could not be fit.
Additionally or alternatively, efficacy can be represented as % inhibition in the presence (of a given concentration of compound) versus the absence of compound or in comparison to a control compound. For example, efficacy can be represented as % inhibition of ion flux in the presence versus the absence of compound.

TRPC5 channel [2] = molecular target: T1, TRPC5 channel; assay: Patch clamp experiments (whole-cell, LaCl3-activated TRPC5 current); type: cell-based; conditions: whole-cell patch clamp in TRPC5-expressing HEK293 TREx cells; block of inward and outward currents in continued presence of LaCl3; IC50 estimated
From the text: Patch clamp experiments permit the detection of currents through the TRPC5 channel in the cell line described above. In normal whole-cell patch clamp recordings, a glass electrode is brought into contact with a single cell and a high-resistance (gigaohm) seal is established with the cell membrane. The membrane is then ruptured to achieve the whole-cell configuration, permitting control of the voltage of the cell membrane and measurement of currents flowing across the membrane using the amplifier attached to the electrode and resulting in the replacement of cytoplasm with the pipette solution. A perfusion system permits control of the extracellular solution, including the addition of blockers and activators of the current. The current can be activated by including 1.4 μM free Ca^2+ in the pipette (intracellular) solution, and 80 μM LaCl3 in the extracellular solution.
TRPC5 cells were induced 20-48 hours, removed from growth plates, and replated at low density (to attain good single-cell physical separation) on glass coverslips for measurement. In some cases, cells were grown in low density overnight on glass coverslips. Patch clamp recordings were made in the whole-cell mode with a holding potential of −40 mV. Every 5 seconds, a voltage ramp was applied from −120 to +100 mV, 400 ms in duration. Currents elicited were quantified at −80 mV and +80 mV. The internal solution consisted of 140 mM cesium aspartate, 10 mM HEDTA, 2 mM CaCl2, 2.27 mM MgCl2 and 10 mM HEPES, pH 7.2, with 1,400 nM calculated free Ca^2+. The external solution consisted of 150 mM NaCl, 4.5 mM KCl, 1 mM MgCl2, 2 mM CaCl2, 10 mM HEPES, 10 mM glucose, 1 mM EGTA, pH 7.4. Upon addition of LaCl3, TRPC5 current was induced only in TRPC5-expressing cells and not in parental HEK293 TREx cells. Removal of the LaCl3 stimulus causes most of the current to go away. Potential blockers were tested for ability to block both inward and outward currents in the continued presence of LaCl3.
IC50 of a compound of Formula (I) was estimated by testing the compound at 5 μM and 500 nM. […] IC50 for a compound of Formula (I) between 500 nM and 5 μM was similarly estimated.

SMILES	IC50 (TRPC5 channel [1]) [nM]	IC50 (TRPC5 channel [2]) [nM]
CC(C)CCc1c(-c2ccccc2C(C)C)cnc2c1c(=O)n(CCCO)c(=O)n2C [Compound 23, 3-(3-hydroxypropyl)-5-isopentyl-6-(2-isopropylphenyl)-1-methylpyrido[2,3-d]pyrimidine-2,4(1H,3H)-dione]	6490	12.2
Cn1c(=O)n(CCCO)c(=O)c2c(Cc3ccc(Cl)cc3)c(Oc3cccc(OC(F)(F)F)c3)cnc21 [Compound 21, 5-(4-chlorobenzyl)-3-(3-hydroxypropyl)-1-methyl-6-(3-(trifluoromethoxy)phenoxy)pyrido[2,3-d]pyrimidine-2,4(1H,3H)-dione]	269	< 1
CC(C)Oc1cnc2c(c1Cc1ccccc1)c(=O)n(CCCO)c(=O)n2C [Compound 29, 5-benzyl-3-(3-hydroxypropyl)-6-isopropoxy-1-methylpyrido[2,3-d]pyrimidine-2,4(1H,3H)-dione]	27	4.5
Cn1c(=O)n(CCCO)c(=O)c2c(C(O)c3ccc(Cl)cc3)c(-c3cccc(OC(F)(F)F)c3)cnc21 (stereo not shown) [Compound 39, 5-((4-chlorophenyl)(hydroxyl)methyl)-3-(3-hydroxypropyl)-1-methyl-6-(3-(trifluoromethoxy)phenyl)pyrido[2,3-d]pyrimidine-2,4(1H,3H)-dione]		51.7
Cn1c(=O)n(CCCO)c(=O)c2c(Cc3ccccc3)c(-c3cccc(F)c3)cnc21 [Compound 34, 5-benzyl-6-(3-fluorophenyl)-3-(3-hydroxypropyl)-1-methylpyrido[2,3-d]pyrimidine-2,4(1H,3H)-dione]	154	8.3
Cn1c(=O)n(CCCO)c(=O)c2c(Cc3ccc(Cl)cc3)c(-c3cccc(OC(F)(F)F)c3)cnc21 [Compound 40, 5-(4-chlorobenzyl)-3-(3-hydroxypropyl)-1-methyl-6-(3-(trifluoromethoxy)phenyl)pyrido[2,3-d]pyrimidine-2,4(1H,3H)-dione]		2.9
CC(C)Oc1cnc2c(c1Cc1ccc(F)cc1)c(=O)n(CCCO)c(=O)n2C [Compound 31, 5-(4-fluorobenzyl)-3-(3-hydroxypropyl)-6-isopropoxy-1-methylpyrido[2,3-d]pyrimidine-2,4(1H,3H)-dione]	27	1.47

More lines, now with the values ahead:

IC50 (TRPC5 channel [1]) [nM]	IC50 (TRPC5 channel [2]) [nM]	SMILES
357	< 1	Cn1c(=O)n(CCCO)c(=O)c2c(Cc3ccc(F)cc3)c(Oc3ccc(Cl)cc3)cnc21 [Compound 30, 6-(4-chlorophenoxy)-5-(4-fluorobenzyl)-3-(3-hydroxypropyl)-1-methylpyrido[2,3-d]pyrimidine-2,4(1H,3H)-dione]
	29	Cc1cncc(Oc2cnc3c(c2Cc2ccc(Cl)cc2)c(=O)n(CCCO)c(=O)n3C)c1 [Compound 27, 5-(4-chlorobenzyl)-3-(3-hydroxypropyl)-1-methyl-6-(5-methylpyridin-3-yloxy)pyrido[2,3-d]pyrimidine-2,4(1H,3H)-dione]
14	3.4	Cn1c(=O)n(CCCO)c(=O)c2c(Cc3ccc(Cl)cn3)c(-c3cccc(OC(F)(F)F)c3)cnc21 [Compound 35, 5-((5-chloropyridin-2-yl)methyl)-3-(3-hydroxypropyl)-1-methyl-6-(3-(trifluoromethoxy)phenyl)pyrido[2,3-d]pyrimidine-2,4(1H,3H)-dione]
27	1.2	CC(C)Oc1cnc2c(c1Cc1ccc(Cl)cc1)c(=O)n(CCCO)c(=O)n2C [Compound 36, 5-(4-chlorobenzyl)-3-(3-hydroxypropyl)-6-isopropoxy-1-methylpyrido[2,3-d]pyrimidine-2,4(1H,3H)-dione]
